From a melting point compilation (Tetko et al.; mined from patent text by program, amines drawn as free bases though some values may be those of a salt)

Compared with `OC(Cn1cncn1)(c1ccc(F)cc1F)C(c1ccc(OCc2ccccc2)cc1)n1cncn1` (centres undefined), `Nc1cc(C(=O)O)cc(OCc2ccccc2)c1Cc1ccccc1` is higher in melting point: 144 to 147 °C for the first, 208 to 210 °C for the second.

First: CCCN(c1ccncc1)N1C(=O)C2(CCN(C)CC2)c2ccccc21
Second: Cc1ccn2c(C(=O)NCc3ccccc3)c(C)nc2c1
The melting point of the first is lower: 125 to 127 °C for the first, 166 to 167 °C for the second.

First: Oc1cc(Cl)c(N2CCOCC2)cc1Oc1ccc(Cl)cc1Cl
Second: CC(C)(C)OC(=O)N1CCC(c2ccc3nc(-c4ccc(S(C)(=O)=O)cc4F)oc3c2)CC1
The melting point of the first is higher: 187 to 188 °C for the first, 166 to 169 °C for the second.

Compared with `CNC(=O)N1CC(Oc2ccccn2)C1`, `C[Si](C)(C)c1cccc(I)c1C(=O)NC1CC1` is lower in melting point: 165 to 168 °C for the first, 162 to 164 °C for the second.

Compared with `COC[C@H](Cc1ccccc1)NC(=O)[C@@H](CC(=O)O)n1ccc(-c2ccc(-c3ccccc3)cc2)c1`, `O=C(NCC(Cc1ccccc1)C(=O)Nc1n[nH]c(=S)s1)OCc1ccccc1` (centres undefined) is lower in melting point: 247 °C for the first, 88 to 90 °C for the second.

First: O=C1CC(CO)C(c2c(Cl)cccc2Cl)N1Cc1ccccc1 (centres undefined)
Second: COc1ccc2c(c1)CCC(C(=O)Cc1ccccc1)C2C#N (centres undefined)
The melting point of the first is lower: 122 to 126 °C for the first, 139 to 142 °C for the second.

First: Nc1c(-c2csc(-c3ccncc3)n2)c(=O)[nH]c2ccc(Cl)cc12
Second: CC(C)(O)COc1c(-c2ccc(S(C)(=O)=O)cc2)cnn(-c2ccc(F)c(Cl)c2)c1=O
The melting point of the first is higher: > 220 °C for the first, 122 to 124 °C for the second.

First: NC(=O)Cn1c(=O)c2ncn3c2n(c1=O)CC=C3c1cccc(C(F)(F)F)c1
Second: Cc1cccc2c1C(=O)N1CC[C@H]1c1c(C(=O)OC3CCCCC3)ncn1-2
The melting point of the first is higher: 283 to 285 °C for the first, 199 to 200 °C for the second.

Compared with `COc1ccc(C(O)(c2ccc(OC)cc2)[C@@H](N)C2CCCCC2)cc1`, `COc1ccc(Cn2cnc3c(-c4ccco4)nc(C4CC4)nc32)cc1` is lower in melting point: 146 to 147 °C for the first, 115 to 116 °C for the second.

First: CCOC(=O)C1=C(CC)Nc2n[nH]cc2C1c1ccccc1OC (centres undefined)
Second: CCOC(=O)C1=C(N)NC(N)=C(C(=O)OCC)C1c1cccc(C(=O)OCC)c1
The melting point of the first is lower: 169 °C for the first, 191 °C for the second.

First: Cc1ncc(CO)c(CN(C)C)c1O
Second: CCCc1cc(Cl)c2oc(C(=O)c3ccc(OC)cc3)c(C)c2c1O
The melting point of the first is higher: 146 to 151 °C for the first, 103 to 105 °C for the second.

First: CS(=O)(=O)c1ccc(C(CC2CCC(=O)C2)C(=O)O)cc1Cl (centres undefined)
Second: CC(=O)NC(CC(=O)c1cc(Cl)ccc1N)C(=O)NC(CO)c1ccccc1 (centres undefined)
The melting point of the first is lower: 164 to 167 °C for the first, 212 to 215 °C for the second.

Compared with `O=c1ncc(Cl)cn1CSc1ccc(F)cc1`, `CC(CO)Nc1c(Br)cnc2cc(Cl)ccc12` (centres undefined) is lower in melting point: 179 °C for the first, 145 to 147 °C for the second.

First: COC(=O)c1ccc(C2=NOC(c3cc(Cl)cc(Cl)c3)(C(F)(F)F)C2)cc1 (centres undefined)
Second: O=C(c1ccccc1Cl)c1c(O)nn(-c2c(Cl)cc(Cl)cc2Cl)c1N1C(=O)c2ccccc2C1=O
The melting point of the first is lower: 94 to 96 °C for the first, 245 to 246 °C for the second.

First: CS(=O)(=O)N1CCN([C@@H](CNS(=O)(=O)c2ccc(OCc3ccnc(-c4ccccc4)c3)cc2)C(=O)NO)CC1
Second: COc1ccc(N2CCN(Cc3nn(C(C)=O)c4cc(F)ccc34)CC2)cc1
The melting point of the first is higher: 100 °C for the first, 94 to 95 °C for the second.

Compared with `CCC(=O)NC1=C(OCCOC)C(=O)c2ccccc2C1=O`, `CNC(=O)/C(=N/OC)c1ccccc1COc1ccccc1C` is lower in melting point: 116 to 117 °C for the first, 109 to 112 °C for the second.

First: CCCCCCS(=O)(=O)c1ccc(S(=O)(=O)CCCCCC)nc1
Second: CCCc1c(OCC(O)COc2cccc(NC(=O)c3nnn[nH]3)c2C#N)ccc(C(C)=O)c1O (centres undefined)
The melting point of the first is higher: 135 to 136 °C for the first, 117 to 119 °C for the second.

First: CCC(C#N)(C#N)Cc1ccc(Cl)cc1
Second: CC1=C(C(=O)c2ccc(C(=O)O)cc2)C(=O)C2C=CC=CC2C1=O (centres undefined)
The melting point of the first is lower: 70.9 °C for the first, 201 °C for the second.

First: CN1CC(=O)C(C)(C)CC1=O
Second: CCOC1=NS(=O)(=O)N=C1N[C@@H]1c2cc(OC(F)(F)F)ccc2OC(C)(C)[C@H]1O
The melting point of the first is lower: 52 to 54 °C for the first, 192 to 194 °C for the second.

`COc1ccc(Oc2c(Br)cc(C=O)cc2Br)cc1Cc1ccc(=O)[nH]n1` gave a melting point of 183 to 184 °C.
